Reference: paper PMC5048684 (The journal of physical chemistry. B, 2016)
Read-outs that look alike come from different tables or passages of the source.

How the values were obtained:
[1] = biological target: T1, CYP2C9 (Homo sapiens, UniProt P11712); assay: Luminescence titration of solubilized CYP2C9 with type I and type II ligands
[2] = biological target: T2, P450cam (Pseudomonas putida, UniProt P00183); details: read-out: KS (literature values); depending on the stereoisomer used; cited from earlier work
T2 sequence (P00183 1-415): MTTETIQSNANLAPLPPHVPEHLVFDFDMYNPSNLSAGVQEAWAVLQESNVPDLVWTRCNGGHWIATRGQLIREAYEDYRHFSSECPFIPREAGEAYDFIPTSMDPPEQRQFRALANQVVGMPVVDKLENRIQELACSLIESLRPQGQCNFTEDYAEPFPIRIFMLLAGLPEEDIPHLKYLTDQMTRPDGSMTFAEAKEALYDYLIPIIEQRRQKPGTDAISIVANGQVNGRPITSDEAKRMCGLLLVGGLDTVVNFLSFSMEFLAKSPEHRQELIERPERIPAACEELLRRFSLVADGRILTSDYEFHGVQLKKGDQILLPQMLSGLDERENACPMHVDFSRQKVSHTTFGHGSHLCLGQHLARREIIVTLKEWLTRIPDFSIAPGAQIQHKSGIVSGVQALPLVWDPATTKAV

[3] = biological target: T1, CYP2C9; details: read-out: KS (reported value); ref Hutzler et al. 31; cited from earlier work
[4] = biological target: CYP3A4 (Homo sapiens, UniProt P08684); assay: Luminescence titration of solubilized CYP3A4 with type I and type II ligands
Chain of CYP3A4 (P08684 whole entry): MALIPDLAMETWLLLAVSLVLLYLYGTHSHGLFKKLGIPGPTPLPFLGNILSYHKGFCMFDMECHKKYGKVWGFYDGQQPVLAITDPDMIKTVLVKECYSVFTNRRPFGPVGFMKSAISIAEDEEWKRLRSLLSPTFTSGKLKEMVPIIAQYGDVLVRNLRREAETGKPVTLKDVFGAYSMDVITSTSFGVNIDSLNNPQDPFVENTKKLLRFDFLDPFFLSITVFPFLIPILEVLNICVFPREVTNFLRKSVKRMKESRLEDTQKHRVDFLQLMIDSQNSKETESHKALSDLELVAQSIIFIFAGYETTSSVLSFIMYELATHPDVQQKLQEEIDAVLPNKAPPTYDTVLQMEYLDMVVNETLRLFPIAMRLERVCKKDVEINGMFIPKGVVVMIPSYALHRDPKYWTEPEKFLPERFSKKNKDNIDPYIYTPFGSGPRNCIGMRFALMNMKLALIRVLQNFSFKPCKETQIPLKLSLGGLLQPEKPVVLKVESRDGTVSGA

T1 sequence (P11712 whole entry): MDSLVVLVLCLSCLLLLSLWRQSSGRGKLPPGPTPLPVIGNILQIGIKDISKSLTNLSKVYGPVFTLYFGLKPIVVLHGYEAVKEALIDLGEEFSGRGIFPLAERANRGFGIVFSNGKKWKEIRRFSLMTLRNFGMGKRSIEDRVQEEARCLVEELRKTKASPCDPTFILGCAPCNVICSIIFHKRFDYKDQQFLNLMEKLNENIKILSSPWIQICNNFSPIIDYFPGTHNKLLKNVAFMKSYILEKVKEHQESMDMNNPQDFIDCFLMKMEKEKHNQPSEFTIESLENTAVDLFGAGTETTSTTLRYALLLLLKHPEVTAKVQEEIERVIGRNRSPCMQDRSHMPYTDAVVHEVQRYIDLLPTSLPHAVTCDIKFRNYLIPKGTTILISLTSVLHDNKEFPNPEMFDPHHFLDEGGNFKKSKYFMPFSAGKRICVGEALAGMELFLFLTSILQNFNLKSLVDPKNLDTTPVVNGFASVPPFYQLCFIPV

O=C(Nc1ccc2ccccc2c1)c1cc(-c2ccncc2)nc2ccccc12 [QC, N-(naphthalene-2-yl)-2-(pyridine-4-yl)quinoline-4-carboxamide]
Kd [1]: 0.11 ± 0.06 µM

CC12CCC(CC1=O)C2(C)C (centres unmarked) [camphor]
Kd [2]: 1.6 to 2.6 µM

CC(C(=O)O)c1ccc(-c2ccccc2)c(F)c1 (centres unmarked) [flurbiprofen]
Kd [3]: 14.1 µM | Kd [1]: 20.2 ± 1.1 µM

C[C@]12CC[C@H]3[C@@H](CCC4=CC(=O)CC[C@@]43C)[C@@H]1CC[C@@H]2O [testosterone]
Kd [4]: 30.5 ± 6.5 µM
